Active and inactive are the calls of the source. No cut-off for these calls is given here.
Experiments:
[1] = molecular target: C-C motif chemokine 2 (Homo sapiens) (UniProt P13500); test: Inhibition of CCL2 in human PBMC assessed as reduction of cell migration into TNFalpha/IFNgamma-stimulated HMEC-1 cells at 50 uM after 4 hrs; assay type: cell-based
[2] = molecular target: C-C motif chemokine 2 (Homo sapiens) (UniProt P13500); test: Inhibition of CCL2 in human PBMC assessed as reduction of cell adhesion to VCAM1-Fc at 50 uM by flow based adhesion assay
[3] = molecular target: C-C motif chemokine 7 (Homo sapiens) (UniProt P80098); test: Inhibition of CCL7 in human THP1 cells assessed as reduction of cell migration at 50 uM after 3 hrs; assay type: cell-based; details: THP-1
Sequence of C-C motif chemokine 7 (Homo sapiens) (P80098 whole entry): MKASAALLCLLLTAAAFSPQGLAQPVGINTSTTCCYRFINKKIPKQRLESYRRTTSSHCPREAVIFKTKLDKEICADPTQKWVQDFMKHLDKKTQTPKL

[4] = molecular target: C-C motif chemokine 2 (Homo sapiens) (UniProt P13500); test: Inhibition of CCL2 in human THP1 cells assessed as reduction of cell migration into TNFalpha/IFNgamma-stimulated HMEC-1 cells at 50 uM after 4 hrs; assay type: cell-based; details: THP-1
[5] = molecular target: C-C motif chemokine 2 (Homo sapiens) (UniProt P13500); test: Inhibition of CCL2 in human THP1 cells assessed as reduction of cell migration at 100 uM after 3 hrs; assay type: cell-based; details: THP-1
[6] = molecular target: T1, C-C motif chemokine 5 (Homo sapiens) (UniProt P13501); test: Inhibition of CCL5 in human THP1 cells assessed as reduction of cell migration at 50 uM after 3 hrs; assay type: cell-based; details: THP-1
T1 sequence (whole entry): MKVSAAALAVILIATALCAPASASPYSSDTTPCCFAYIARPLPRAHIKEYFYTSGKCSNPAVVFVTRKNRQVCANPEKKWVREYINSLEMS

[7] = molecular target: C-C motif chemokine 2 (Homo sapiens) (UniProt P13500); test: Inhibition of CCL2 in human THP1 cells assessed as effect on level of ERK1/2 phosphorylation at 50 uM after 5 mins by Western blot analysis; assay type: cell-based; details: THP-1
[8] = molecular target: C-C motif chemokine 2 (Homo sapiens) (UniProt P13500); test: Inhibition of CCL2 in human THP1 cells assessed as reduction of cell migration at 50 uM after 3 hrs; assay type: cell-based; details: THP-1

Sequence of C-C motif chemokine 2 (Homo sapiens) (P13500 24-99 limits assumed): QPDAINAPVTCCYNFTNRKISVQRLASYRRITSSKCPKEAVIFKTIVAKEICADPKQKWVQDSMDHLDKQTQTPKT

inhibition [1]	inhibition [2] [%]	inhibition [3]	inhibition [4] [%]	inhibition [5]	inhibition [6]	inhibition [7]	inhibition [8]	Structure (SMILES)
Active	35	inactive	70	Active	inactive	inactive	40%	O=C1N[C@@H](Cc2ccc(F)cc2)C(=O)N2CCC[C@@H]12
Active	–	–	50	Active	–	inactive	Active	O=C1N[C@@H](Cc2ccccc2)C(=O)N2CCC[C@@H]12

From ChEMBL document CHEMBL3217544, “Evaluation of two cyclic di-peptides as inhibitors of CCL2 induced chemotaxis” (Medchemcomm, 2013)
